Toxic doses and inconclusive results are not listed.

Consider 16 compounds from PubChem BioAssay AID248 (DTP/NCI, 2004).

This test deals with L1210 leukemia ip in BDF1 mice, survival T/C. The test can be described thus: NCI In Vivo Anticancer Drug Screen. Data for tumor model L1210 Leukemia (intraperitoneal) in B6D2F1 (BDF1) mice. The note with it: endpoint: mean survival time, higher = longer survival. Summed up: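 Each compound was tested against a transplantable tumor grown in mice. The endpoint was survival, with treated animals benchmarked against vehicle controls as a simple ratio.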

The mark [1] stands for this setting: dose: 12.5 mg/kg/injection, schedule: Q01DX009 (ip), vehicle: saline.
Where [2] appears, read: dose: 50.0 mg/kg/injection, schedule: Q01DX009 (ip), vehicle: saline.
The mark [3] stands for this setting: dose: 100.0 mg/kg/injection, schedule: Q01DX009 (ip), vehicle: saline.
Where [4] appears, read: dose: 100.0 mg/kg/injection, schedule: Q04DX003 (ip), vehicle: saline.
[5] abbreviates: dose: 100.0 mg/kg/injection, schedule: Q04DX003 (ip), vehicle: Klucel (hydroxypropylcellulose) (HPC).
Where [6] appears, read: dose: 200.0 mg/kg/injection, schedule: Q04DX003 (ip), vehicle: Klucel (hydroxypropylcellulose) (HPC).
Setting [7] is: dose: 400.0 mg/kg/injection, schedule: Q04DX003 (ip), vehicle: Klucel (hydroxypropylcellulose) (HPC).
[8] abbreviates: dose: 100.0 mg/kg/injection, schedule: Q01DX009 (ip), vehicle: Klucel (hydroxypropylcellulose) (HPC).
[9] abbreviates: dose: 200.0 mg/kg/injection, schedule: Q01DX009 (ip), vehicle: Klucel (hydroxypropylcellulose) (HPC).
Setting [10] is: dose: 400.0 mg/kg/injection, schedule: Q01DX009 (ip), vehicle: Klucel (hydroxypropylcellulose) (HPC).
Where [11] appears, read: dose: 400.0 mg/kg/injection, schedule: Q01DX009 (ip), vehicle: other.

On to `Ic1ccccc1C[N+]12CN3CN(CN(C3)C1)C2`, for which the T/C (dose: 15.0 mg/kg/injection, schedule: Q01DX015 (ip), vehicle: carboxymethylcellulose (CMC)) was 101 % of control; the T/C (dose: 30.0 mg/kg/injection, schedule: Q01DX015 (ip), vehicle: carboxymethylcellulose (CMC)) was 92 % of control; the T/C (dose: 60.0 mg/kg/injection, schedule: Q01DX015 (ip), vehicle: carboxymethylcellulose (CMC)) is 92 % of control; the T/C (dose: 100.0 mg/kg/injection, schedule: Q01DX001 (ip), vehicle: acetone) is 101 % of control; the T/C (dose: 100.0 mg/kg/injection, schedule: Q01DX009 (ip), vehicle: acetone) is 96 % of control; the T/C (dose: 100.0 mg/kg/injection, schedule: Q04DX003 (ip), vehicle: acetone) is 100 % of control. The T/C is 103 % of control (dose: 120.0 mg/kg/injection, schedule: Q01DX015 (ip), vehicle: carboxymethylcellulose (CMC)); 101 % of control (dose: 200.0 mg/kg/injection, schedule: Q01DX001 (ip), vehicle: acetone); 94 % of control (dose: 200.0 mg/kg/injection, schedule: Q01DX009 (ip), vehicle: acetone); 100 % of control (dose: 200.0 mg/kg/injection, schedule: Q04DX003 (ip), vehicle: acetone); 94 % of control (dose: 400.0 mg/kg/injection, schedule: Q01DX001 (ip), vehicle: acetone); 93 % of control (dose: 400.0 mg/kg/injection, schedule: Q04DX003 (ip), vehicle: acetone).
As for `CN1CCN=C(c2ccccc2)c2cc(Cl)ccc21`, the T/C is, setting by setting: (dose: 6.25 mg/kg/injection, schedule: Q01DX009 (ip), vehicle: saline) 110 % of control; under setting [1], 101 % of control; (dose: 25.0 mg/kg/injection, schedule: Q01DX009 (ip), vehicle: saline) 94 % of control; (dose: 25.0 mg/kg/injection, schedule: Q04DX003 (ip), vehicle: saline) 93 % of control; under setting [2], 100 % of control; (dose: 50.0 mg/kg/injection, schedule: Q04DX003 (ip), vehicle: saline) 93 % of control. The T/C under setting [3] is 95 % of control and the T/C under setting [4] was 98 % of control.
Consider `Cn1c(=O)c(Br)c(N)c2ccccc21`, for which the T/C reads like this: (dose: 100.0 mg/kg/injection, schedule: Q01DX001 (ip), vehicle: other) 101 % of control; (dose: 200.0 mg/kg/injection, schedule: Q01DX001 (ip), vehicle: other) 101 % of control; (dose: 400.0 mg/kg/injection, schedule: Q01DX001 (ip), vehicle: other) 101 % of control.
`O=[N+]([O-])c1cc(S(=O)(=O)O)c(Nc2ccccc2)cc1NCCO`: the T/C is, setting by setting: under setting [5], 91 % of control; under setting [6], 91 % of control; under setting [7], 90 % of control.
Take `NC(=O)c1ccc[n+](Cc2ccccc2)c1`: the T/C is 97 % of control (dose: 37.5 mg/kg/injection, schedule: Q04DX003 (ip), vehicle: saline); 94 % of control (dose: 75.0 mg/kg/injection, schedule: Q04DX003 (ip), vehicle: saline); 100 % of control under setting [3]; 95 % of control (dose: 150.0 mg/kg/injection, schedule: Q04DX003 (ip), vehicle: saline); 107 % of control (dose: 200.0 mg/kg/injection, schedule: Q01DX009 (ip), vehicle: saline).
For `CC1CC(C)(C)N=C(CC(C)(O)c2ccccn2)O1` (centres undefined), the T/C is 97 % of control (dose: 100.0 mg/kg/injection, schedule: Q01DX001 (ip), vehicle: saline sonified); 103 % of control (dose: 200.0 mg/kg/injection, schedule: Q01DX001 (ip), vehicle: saline sonified); 100 % of control (dose: 400.0 mg/kg/injection, schedule: Q01DX001 (ip), vehicle: saline sonified).
As to `Cc1nc(C)c(C)s1`, the T/C under setting [8] was 95 % of control; the T/C under setting [5] was 102 % of control; the T/C under setting [9] was 95 % of control; the T/C under setting [6] was 100 % of control; the T/C under setting [10] was 90 % of control; the T/C under setting [7] is 104 % of control.
On to `O=[N+]([O-])C(Cl)(CN1CCOCC1)CN1CCOCC1`, for which the T/C is 113 % of control (dose: 11.1 mg/kg/injection, schedule: Q01DX Z (ip), vehicle: saline); 91 % of control (dose: 16.6 mg/kg/injection, schedule: Q01DX Z (ip), vehicle: saline); 95 % of control (dose: 25.0 mg/kg/injection, schedule: Q01DX Z (ip), vehicle: saline).
With `Cc1ccc(C(SCC(N)C(=O)O)(c2ccc(C)cc2)c2ccc(C)cc2)cc1` (centres undefined), the T/C (dose: 4.8 mg/kg/injection, schedule: Q01DX009 (ip), vehicle: saline) is 95 % of control; the T/C (dose: 6.5 mg/kg/injection, schedule: Q01DX009 (ip), vehicle: saline) is 108 % of control; the T/C (dose: 7.2 mg/kg/injection, schedule: Q01DX009 (ip), vehicle: saline) is 104 % of control; the T/C under setting [1] is 123 % of control; the T/C (dose: 50.0 mg/kg/injection, schedule: Q01DX009 (ip), vehicle: other) was 120 % of control; the T/C under setting [2] is 157 % of control. Besides, the T/C is, setting by setting: under setting [3], 221 % of control; under setting [11], 94 % of control.
For `Cc1ccc(NC(=O)COc2cc(Cl)c(Cl)cc2Cl)c([N+](=O)[O-])c1`, the T/C is, setting by setting: under setting [8], 105 % of control; under setting [5], 106 % of control; under setting [9], 89 % of control; under setting [6], 102 % of control; under setting [10], 89 % of control; under setting [7], 93 % of control.
For the compound `Cc1ccc(Nc2nnc(N=Nc3ccccc3)s2)cc1C`, the T/C reads like this: (dose: 100.0 mg/kg/injection, schedule: Q01DX009 (ip), vehicle: other) 101 % of control; (dose: 200.0 mg/kg/injection, schedule: Q01DX009 (ip), vehicle: other) 98 % of control; under setting [11], 98 % of control.
With `c1ccc(N/N=C(\C(=N\Nc2ccccc2)c2ccccc2)c2ccccc2)cc1`, the T/C is, setting by setting: (dose: 200.0 mg/kg/injection, schedule: Q01DX001 (ip), vehicle: Klucel (hydroxypropylcellulose) (HPC)) 87 % of control; (dose: 400.0 mg/kg/injection, schedule: Q01DX001 (ip), vehicle: Klucel (hydroxypropylcellulose) (HPC)) 86 % of control.
As to `CCOC(=O)c1cnc2c(ccc3cc(OC)ccc32)c1Cl`, the T/C reads like this: (dose: 50.0 mg/kg/injection, schedule: Q01DX009 (ip), vehicle: Klucel (hydroxypropylcellulose) (HPC)) 101 % of control; under setting [8], 97 % of control; under setting [9], 101 % of control.
Regarding `CN(C)C(=S)SCCC(N)C(=O)O` (centres undefined), the T/C was 90 % of control (dose: 50.0 mg/kg/injection, schedule: Q01DX009 (ip), vehicle: saline with Tween-80); 101 % of control (dose: 100.0 mg/kg/injection, schedule: Q01DX009 (ip), vehicle: saline with Tween-80); 96 % of control (dose: 200.0 mg/kg/injection, schedule: Q01DX009 (ip), vehicle: saline with Tween-80).
Consider `Cc1ccc(NC(=O)NCc2ccco2)cc1`, for which the T/C by setting is: (dose: 222.0 mg/kg/injection, schedule: Q01DX Z (ip), vehicle: methylcellulose (MC)) 94 % of control; (dose: 333.0 mg/kg/injection, schedule: Q01DX Z (ip), vehicle: methylcellulose (MC)) 100 % of control; (dose: 500.0 mg/kg/injection, schedule: Q01DX Z (ip), vehicle: methylcellulose (MC)) 94 % of control.
With `O=C(O)C1CCCC[N-]1.O=C(O)C1CCCC[N-]1.O=C(O)C1CCCC[N-]1.O=C(O)C1CCCC[N-]1.[Cl][Rh][Cl]` (centres undefined), the T/C is 98 % of control (dose: 12.5 mg/kg/injection, schedule: Q01DX008 (ip), vehicle: water); 98 % of control (dose: 25.0 mg/kg/injection, schedule: Q01DX008 (ip), vehicle: water); 103 % of control (dose: 50.0 mg/kg/injection, schedule: Q01DX008 (ip), vehicle: water); 97 % of control (dose: 100.0 mg/kg/injection, schedule: Q01DX008 (ip), vehicle: water); 93 % of control under setting [3]; 102 % of control under setting [4]. The T/C is, setting by setting: (dose: 200.0 mg/kg/injection, schedule: Q04DX003 (ip), vehicle: saline) 100 % of control; (dose: 400.0 mg/kg/injection, schedule: Q04DX003 (ip), vehicle: saline) 96 % of control.
